Results as given in PMC8303963, “Action of Multiple Rice β-Glucosidases on Abscisic Acid Glucose Ester” (International Journal of Molecular Sciences, 2021).

Biological target: T1, Os9BGlu31 (Oryza sativa, UniProt B7F7K7)
T1 construct: gene BGLU31; recombinant from E. coli, IMAC purified
T1 sequence (B7F7K7 23-523): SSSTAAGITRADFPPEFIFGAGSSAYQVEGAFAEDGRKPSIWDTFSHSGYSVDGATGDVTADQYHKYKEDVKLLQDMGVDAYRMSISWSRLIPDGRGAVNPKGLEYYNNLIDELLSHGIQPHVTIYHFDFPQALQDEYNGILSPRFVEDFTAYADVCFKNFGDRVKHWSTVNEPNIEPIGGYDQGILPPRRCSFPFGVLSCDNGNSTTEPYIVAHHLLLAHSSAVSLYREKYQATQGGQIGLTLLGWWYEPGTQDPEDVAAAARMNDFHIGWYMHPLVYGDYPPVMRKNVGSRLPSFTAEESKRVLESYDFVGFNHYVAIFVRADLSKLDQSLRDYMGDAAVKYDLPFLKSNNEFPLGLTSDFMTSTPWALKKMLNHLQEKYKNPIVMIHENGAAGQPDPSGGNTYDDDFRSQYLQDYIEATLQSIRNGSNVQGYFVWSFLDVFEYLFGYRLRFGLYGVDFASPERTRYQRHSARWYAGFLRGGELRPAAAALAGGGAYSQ
Assay: preparative transglucosylation, product by NMR and UHPLC
Format: biochemical
Conditions: glucose acceptor; 10 mM ABA, 10 mM pNPGlc as donor, citrate buffer pH 4.5, 37 °C overnight

SMILES: CC1=CC(=O)CC(C)(C)[C@@]1(O)/C=C/C(C)=C\C(=O)O [ABA]
- preparative transglucosylation, product by NMR and UHPLC: used to transfer glucose from pNPGlc to ABA to generate ABA-GE
